Assay results taken from US20230002372A1, “AZAINDOLE CARBOXAMIDE COMPOUNDS FOR THE TREATMENT OF MYCOBACTERIAL INFECTIONS” (THE GLOBAL ALLIANCE FOR TB DRUG DEVELOPMENT, INC., priority 2019, published 2023).
≈ marks a conversion by molar mass, not a printed value.

These compounds were tested on M tb H37Rv (assay: MIC determination against M tb H37Rv (green fluorescent protein reporter assay; MIC-MABA)). Conditions: M. tb H37Rv; 7H9 broth; 10 days exposure; MIC = lowest concentration inhibiting fluorescence by 90%.
Type: cell-based, Mycobacterium tuberculosis

With `Cc1cc(F)c2cc(C(=O)N[C@H]3C[C@H]4C[C@@H]([C@@H]3C)C4(C)C)[nH]c2n1` [MPL-043, 4-fluoro-6-methyl-N-[(1S,2S,3S,5R)-2,6,6-trimethylnorpinan-3-yl]-1H-pyrrolo[2,3-b]pyridine-2-carboxamide] the “M. TB H37Rv: MIC-MABA: MIC” value was 0.17 µg/mL.

Same assay, conditions: Mycobacterium tuberculosis, H37RV, 240 h, read-out: M. TB H37Rv: MIC-MABA: MIC, M. tb H37Rv; 7H9 broth; 10 days exposure; MIC = lowest concentration inhibiting fluorescence by 90%

In order of falling MIC:
1. CNc1ccnc2[nH]c(C(=O)N[C@H]3C[C@H]4C[C@@H]([C@@H]3C)C4(C)C)cc12 [MPL-023, 4-(methylamino)-N-[(1S,2S,3S,5R)-2,6,6-trimethylnorpinan-3-yl]-1H-pyrrolo[2,3-b]pyridine-2-carboxamide]  11 µg/mL (≈ 33.7 µM)
2. Cc1cc(C)c2cc(C(=O)NC3CCC(C)(C)CC3)[nH]c2n1 [MPL-019, N-(4,4-dimethylcyclohexyl)-4,6-dimethyl-1H-pyrrolo[2,3-b]pyridine-2-carboxamide]  9 µg/mL (≈ 30.1 µM)
3. Cc1cc(C)c2cc(C(=O)NC3CCCCCCC3)[nH]c2n1 [MPL-041, N-cyclooctyl-4,6-dimethyl-1H-pyrrolo[2,3-b]pyridine-2-carboxamide]  8.5 µg/mL (≈ 28.4 µM)
4. COc1ccnc2[nH]c(C(=O)NC3CCCCCCC3)cc12 [MPL-038, N-cyclooctyl-4-methoxy-1H-pyrrolo[2,3-b]pyridine-2-carboxamide]  6.2 µg/mL (≈ 20.6 µM)
5. CNc1ccnc2[nH]c(C(=O)NC3CCCCCCC3)cc12 [MPL-040, N-cyclooctyl-4-(methylamino)-1H-pyrrolo[2,3-b]pyridine-2-carboxamide]  6.2 µg/mL (≈ 20.6 µM)
6. COc1ccnc2[nH]c(C(=O)N[C@H]3C[C@H]4C[C@@H]([C@@H]3C)C4(C)C)cc12 [MPL-014, 4-methoxy-N-[(1S,2S,3S,5R)-2,6,6-trimethylnorpinan-3-yl]-1H-pyrrolo[2,3-b]pyridine-2-carboxamide]  5.4 µg/mL (≈ 16.5 µM)
7. C[C@@H]1[C@@H](NC(=O)c2cc3c(C#N)cncc3[nH]2)C[C@H]2C[C@@H]1C2(C)C [MPL-095, 4-cyano-N-[(1S,2S,3S,5R)-2,6,6-trimethylnorpinan-3-yl]-1H-pyrrolo[2,3-c]pyridine-2-carboxamide]  1.5 µg/mL (≈ 4.65 µM)
8. C[C@@H]1[C@@H](NC(=O)c2cc3c(C#N)ccnc3[nH]2)C[C@H]2C[C@@H]1C2(C)C [MPL-013, 4-cyano-N-[(1S,2S,3S,5R)-2,6,6-trimethylnorpinan-3-yl]-1H-pyrrolo[2,3-b]pyridine-2-carboxamide]  1.2 µg/mL (≈ 3.72 µM)
9. C[C@@H]1[C@@H](NC(=O)c2cc3c(F)cncc3[nH]2)C[C@H]2C[C@@H]1C2(C)C [MPL-092, 4-fluoro-N-[(1S,2S,3S,5R)-2,6,6-trimethylnorpinan-3-yl]-1H-pyrrolo[2,3-c]pyridine-2-carboxamide]  1.2 µg/mL (≈ 3.8 µM)
10. O=C(NC1CCCCCCC1)c1cc2c(F)cncc2[nH]1 [MPL-093, N-cyclooctyl-4-fluoro-1H-pyrrolo[2,3-c]pyridine-2-carboxamide]  1.1 µg/mL (≈ 3.8 µM)
11. CC1(C)CCC(NC(=O)c2cc3c(C4CC4)ccnc3[nH]2)CC1 [MPL-017, 4-cyclopropyl-N-(4,4-dimethylcyclohexyl)-1H-pyrrolo[2,3-b]pyridine-2-carboxamide]  0.72 µg/mL (≈ 2.31 µM)
12. O=C(NC1CCCCCCC1)c1cc2c(F)ccnc2[nH]1 [MPL-027, N-cyclooctyl-4-fluoro-1H-pyrrolo[2,3-b]pyridine-2-carboxamide]  0.61 µg/mL (≈ 2.11 µM)
13. Cc1cc2cc(C(=O)N[C@H]3C[C@H]4C[C@@H]([C@@H]3C)C4(C)C)[nH]c2nc1C [MPL-070, 5,6-dimethyl-N-((1S,2S,3S,5R)-2,6,6-trimethylbicyclo[3.1.1]heptan-3-yl)-1H-pyrrolo[2,3-b]pyridine-2-carboxamide]  0.49 µg/mL (≈ 1.51 µM)
14. N#Cc1cncc2[nH]c(C(=O)NC3CCCCCCC3)cc12 [MPL-096, 4-cyano-N-cyclooctyl-1H-pyrrolo[2,3-c]pyridine-2-carboxamide]  0.47 µg/mL (≈ 1.59 µM)
15. O=C(NC1CCCCCCC1)c1cc2c(C3CC3)ccnc2[nH]1 [MPL-039, N-cyclooctyl-4-cyclopropyl-1H-pyrrolo[2,3-b]pyridine-2-carboxamide]  0.39 µg/mL (≈ 1.25 µM)
16. Cc1ccnc2[nH]c(C(=O)N[C@H]3C[C@H]4C[C@@H]([C@@H]3C)C4(C)C)cc12 [MPL-016, 4-methyl-N-[(1S,2S,3S,5R)-2,6,6-trimethylnorpinan-3-yl]-1H-pyrrolo[2,3-b]pyridine-2-carboxamide]  0.38 µg/mL (≈ 1.22 µM)
17. Cc1cc(Cl)c2cc(C(=O)N[C@@H]3CC[Si](C)(C)C3)[nH]c2n1 (single isomer, unassigned) [MPL-401A]  0.319 µg/mL (≈ 0.991 µM)
18. C[C@@H]1[C@@H](NC(=O)c2cc3c(Cl)cncc3[nH]2)C[C@H]2C[C@@H]1C2(C)C [MPL-006, 4-chloro-N-[(1S,2S,3S,5R)-2,6,6-trimethylnorpinan-3-yl]-1H-pyrrolo[2,3-c]Pyridine-2-carboxamide]  0.3 µg/mL (≈ 0.904 µM)
19. Cc1nc2[nH]c(C(=O)N[C@H]3CCC[Si](C)(C)CC3)cc2c(F)c1Cl (single isomer, unassigned) [MPL-316B]  0.25 µg/mL (≈ 0.679 µM)
20. Cc1ccnc2[nH]c(C(=O)NC3CCCCCCC3)cc12 [MPL-031, N-cyclooctyl-4-methyl-1H-pyrrolo[2,3-b]pyridine-2-carboxamide]  0.25 µg/mL (≈ 0.876 µM)
21. Cc1nc2[nH]c(C(=O)N[C@@H]3CC[Si](C)(C)C3)cc2c(F)c1F (single isomer, unassigned) [MPL-295A]  0.22 µg/mL (≈ 0.68 µM)
22. Cc1nc2[nH]c(C(=O)N[C@H]3CCC[Si](C)(C)CC3)cc2c(F)c1F (single isomer, unassigned) [MPL-282B]  0.197 µg/mL (≈ 0.56 µM)
23. C[C@@H]1[C@@H](NC(=O)c2cc3c(F)c(F)cnc3[nH]2)C[C@H]2C[C@@H]1C2(C)C [MPL-062, 4,5-difluoro-N-[(1S,2S,3S,5R)-2,6,6-trimethylnorpinan-3-yl]-1H-pyrrolo[2,3-b]pyridine-2-carboxamide]  0.19 µg/mL (≈ 0.57 µM)
24. C[C@@H]1[C@@H](NC(=O)c2cc3cc(Cl)c(F)nc3[nH]2)C[C@H]2C[C@@H]1C2(C)C [MPL-064, 5-chloro-6-fluoro-N-[(1S,2S,3S,5R)-2,6,6-trimethylnorpinan-3-yl]-1H-pyrrolo[2,3-b]pyridine-2-carboxamide]  0.16 µg/mL (≈ 0.457 µM)
25. CC1(C)CCC(NC(=O)c2cc3c(C#N)cncc3[nH]2)CC1 [MPL-097, 4-cyano-N-(4,4-dimethylcyclohexyl)-1H-pyrrolo[2,3-c]pyridine-2-carboxamide]  0.16 µg/mL (≈ 0.54 µM)
26. O=C(NC1CCCCCCC1)c1cc2c(Br)ccnc2[nH]1 [MPL-035, 4-bromo-N-cyclooctyl-1H-pyrrolo[2,3-b]pyridine-2-carboxamide]  0.14 µg/mL (≈ 0.4 µM)
27. Cc1cc(F)c2cc(C(=O)N[C@H]3C[C@H]4C[C@@H]([C@@H]3C)C4(C)C)[nH]c2n1 [MPL-043, 4-fluoro-6-methyl-N-[(1S,2S,3S,5R)-2,6,6-trimethylnorpinan-3-yl]-1H-pyrrolo[2,3-b]pyridine-2-carboxamide]  0.14 µg/mL (≈ 0.425 µM)
28. CC1(C)CCC(NC(=O)c2cc3c(F)c(F)cnc3[nH]2)CC1 [MPL-063, N-(4,4-dimethylcyclohexyl)-4,5-difluoro-1H-pyrrolo[2,3-b]pyridine-2-carboxamide]  0.14 µg/mL (≈ 0.456 µM)
29. CC1(C)CCC(NC(=O)c2cc3c(Br)ccnc3[nH]2)CC1 [MPL-007, 4-bromo-N-(4,4-dimethylcyclohexyl)-1H-pyrrolo[2,3-b]pyridine-2-carboxamide]  0.12 µg/mL (≈ 0.343 µM)
30. N#Cc1ccnc2[nH]c(C(=O)NC3CCCCCCC3)cc12 [MPL-036, 4-cyano-N-cyclooctyl-1H-pyrrolo[2,3-b]pyridine-2-carboxamide]  0.08 µg/mL (≈ 0.27 µM)
31. O=C(NC1CCC2(CCC2)CC1)c1cc2c(F)ccnc2[nH]1 [MPL-002, 4-fluoro-N-spiro[3.5]nonan-7-yl-1H-pyrrolo[2,3-b]pyridine-2-carboxamide]  0.056 µg/mL (≈ 0.186 µM)
32. Cc1nc2[nH]c(C(=O)N[C@@H]3CCC[Si](C)(C)CC3)cc2c(F)c1F (single isomer, unassigned) [MPL-282A]  0.051 µg/mL (≈ 0.145 µM)
33. Cc1cc2cc(C(=O)NC3CCCCCCC3)[nH]c2nc1C [MPL-071, N-cyclooctyl-5,6-dimethyl-1H-pyrrolo[2,3-b]pyridine-2-carboxamide]  0.049 µg/mL (≈ 0.164 µM)
34. CC1(C)CCC(NC(=O)c2cc3c(F)cncc3[nH]2)CC1 [MPL-094, N-(4,4-dimethylcyclohexyl)-4-fluoro-1H-pyrrolo[2,3-c]pyridine-2-carboxamide]  0.049 µg/mL (≈ 0.169 µM)
35. Cc1nc2[nH]c(C(=O)N[C@H]3C[C@H]4C[C@@H]([C@@H]3C)C4(C)C)cc2c(F)c1Cl [MPL-068, 5-chloro-4-fluoro-6-methyl-N-[(1S,2S,3S,5R)-2,6,6-trimethylnorpinan-3-yl]-1H-pyrrolo[2,3-b]pyridine-2-carboxamide]  0.046 µg/mL (≈ 0.126 µM)
36. C[C@@H]1[C@@H](NC(=O)c2cc3c(C(F)(F)F)ccnc3[nH]2)C[C@H]2C[C@@H]1C2(C)C [MPL-015, 4-(trifluoromethyl)-N-[(1S,2S,3S,5R)-2,6,6-trimethylnorpinan-3-yl]-1H-pyrrolo[2,3-b]pyridine-2-carboxamide]  0.044 µg/mL (≈ 0.12 µM)
37. O=C(NC1CCCCCCC1)c1cc2c(Cl)ccnc2[nH]1 [MPL-033, 4-chloro-N-cyclooctyl-1H-pyrrolo[2,3-b]pyridine-2-carboxamide]  0.038 µg/mL (≈ 0.124 µM)
38. O=C(NC1CCC2(CCC2)CC1)c1cc2c(Cl)ccnc2[nH]1 [MPL-001, 4-chloro-N-spiro[3.5]nonan-7-yl-1H-pyrrolo[2,3-b]pyridine-2-carboxamide]  0.03 µg/mL (≈ 0.0944 µM)
39. O=C(NC1CCCCCCC1)c1cc2c(C(F)(F)F)ccnc2[nH]1 [MPL-037, N-cyclooctyl-4-(trifluoromethyl)-1H-pyrrolo[2,3-b]pyridine-2-carboxamide]  0.014 µg/mL (≈ 0.0413 µM)
40. O=C(NC1CCCCCCC1)c1cc2cc(Cl)c(F)nc2[nH]1 [MPL-065a, 5-chloro-N-cyclooctyl-6-fluoro-1H-pyrrolo[2,3-b]pyridine-2-carboxamide]  0.013 µg/mL (≈ 0.0401 µM)
41. Cc1nc2[nH]c(C(=O)N[C@H]3C[C@H]4C[C@@H]([C@@H]3C)C4(C)C)cc2c(F)c1F [MPL-066, 4,5-difluoro-6-methyl-N-[(1S,2S,3S,5R)-2,6,6-trimethylnorpinan-3-yl]-1H-pyrrolo[2,3-b]pyridine-2-carboxamide]  0.012 µg/mL (≈ 0.0345 µM)
42. CC1(C)CCC(NC(=O)c2cc3c(Cl)cncc3[nH]2)CC1 [MPL-003, 4-chloro-N-(4,4-dimethylcyclohexyl)-1H-pyrrolo[2,3-c]pyridine-2-carboxamide]  0.01 µg/mL (≈ 0.0327 µM)
43. Cc1nc2[nH]c(C(=O)NC3CCC(C)(C)CC3)cc2c(F)c1Cl [MPL-069, 5-chloro-N-(4,4-dimethylcyclohexyl)-4-fluoro-6-methyl-1H-pyrrolo[2,3-b]pyridine-2-carboxamide]  0.0099 µg/mL (≈ 0.0293 µM)
44. Cc1cc(Cl)c2cc(C(=O)N[C@H]3CC[Si](C)(C)C3)[nH]c2n1 (single isomer, unassigned) [MPL-401B]  0.007 µg/mL (≈ 0.0217 µM)
